Patent publication US7501281B2, “Compositions, methods and kits related to thrombin, Notch signaling and stamatogenesis and growth of stem cells” (Maine Medical Center Research Institute, priority 2003, dated 2009)

Columns and labels:
[1] = biological target: T1, Delta1 (Homo sapiens, UniProt O00548); experiment: Thrombin cleavage of in vitro translation product of Delta1; assay type: biochemical
T1 construct: made in house
T1 sequence (O00548 18-723): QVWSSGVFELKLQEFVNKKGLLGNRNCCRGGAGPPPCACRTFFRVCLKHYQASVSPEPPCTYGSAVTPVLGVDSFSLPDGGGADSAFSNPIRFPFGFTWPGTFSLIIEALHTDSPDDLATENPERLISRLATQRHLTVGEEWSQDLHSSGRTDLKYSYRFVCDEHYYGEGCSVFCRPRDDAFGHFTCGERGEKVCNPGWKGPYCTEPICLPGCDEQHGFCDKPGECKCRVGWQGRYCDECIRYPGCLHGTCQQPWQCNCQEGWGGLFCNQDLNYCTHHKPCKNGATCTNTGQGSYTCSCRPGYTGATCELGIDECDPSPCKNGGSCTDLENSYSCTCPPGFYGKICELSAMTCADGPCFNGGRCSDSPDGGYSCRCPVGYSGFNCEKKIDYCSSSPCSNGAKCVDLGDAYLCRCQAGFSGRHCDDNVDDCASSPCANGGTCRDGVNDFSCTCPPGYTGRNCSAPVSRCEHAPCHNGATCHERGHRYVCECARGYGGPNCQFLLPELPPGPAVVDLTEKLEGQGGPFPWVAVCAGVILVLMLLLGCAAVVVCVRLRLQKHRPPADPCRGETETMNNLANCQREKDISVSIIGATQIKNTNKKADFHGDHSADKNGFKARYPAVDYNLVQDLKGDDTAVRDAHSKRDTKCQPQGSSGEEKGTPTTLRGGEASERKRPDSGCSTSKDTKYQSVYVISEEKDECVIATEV

[2] = test system: FGF1 transcript in NIH 3T3 and Swiss 3T3 cells; experiment: Nuclear run-on analysis of FGF1 transcription; assay type: cell-based, murine
Description: Approximately either 1×10^7 Swiss or NIH 3T3 cells were harvested and washed using ice-cold 50 mM sodium phosphate buffer, pH 7.0 containing 15 mM NaCl. Cell pellets were lysed in 4 ml of ice-cold 10 mM Tris-HCl, pH 7.5, containing 3 mM CaCl2, 3 mM MgCl2, 10 mM NaCl, and 0.5% NP-40. The nuclear pellet was resuspended in glycerol storage buffer (50 mM Tris-HCl, pH 8.3 containing 40% glycerol, 5 mM MgCl2 and 0.1 mM EDTA), the nuclei were snap frozen, and stored in liquid nitrogen. For run-on transcription, 200 μl aliquots of the frozen nuclei were added to 200 μl of reaction buffer (10 mM Tris-HCl, pH 8.3 containing 5 mM MgCl2, 300 mM KCl, 5 mM DTT, 1 mM each of ATP, CTP, and GTP, 40 units of RNase inhibitor and 100 μCi of [^32P]UTP (800 Ci/mmol; Amersham), and incubated at 30° C. for 30 minutes. The mixture was treated with 100 units of RNase-free DNase I for 30 minutes at 30° C. and then incubated with 400 μl of 20 mM Tris-HCl, pH 7.5, containing 2% SDS, 10 mM EDTA, […] proteinase K for 30 minutes at 42° C. Following phenol/CHCl3 extraction, the labelled transcripts were precipitated with isopropanol and dissolved in 50 μl of 10 mM TES, pH 7.5, containing 10 mM EDTA and 0.2% SDS. Linearized plasmid constructs (0.4 μg/dot) containing either the fgfl or gapdh cDNA were alkali denatured and immobilized onto a Hybond-N^+ membrane (Amersham). Hybridization was performed in 1 ml of ULTRA Hyb (Ambion), with 5×10^6 cpm of radiolabeled RNA and yeast RNA (10 μg/ml) for 18 hours with shaking at 50° C. Membranes were washed twice with washing buffer (2×SSC containing 0.1% SDS) at 50° C. and analyzed using a phosphoimager (Molecular Dynamics).

[3] = test system: FGF1R136K NIH 3T3 cell transfectants; experiment: Thrombin stimulation and immunoblot analysis of FGF1 release; assay type: cell-based, murine
Description: FGF1R136K NIH 3T3 cell transfectants or adenovirally-transduced NIH 3T3 cells were washed with DMEM containing 5 units/ml of heparin (Sigma) and stimulated with either 10 μg/ml α-thrombin (a gift from Dr. J. Fenton) or 5 μM TRAP (Sigma) at 37° C. for different periods of time. Control cells were incubated in the absence of thrombin for the same time period. Conditioned media were collected at each time period, filtered, and concentrated as previously described (Jackson et al., 1992, Proc. Natl. Acad. Sci. U.S.A. 89:10691-10695). The concentrates were resolved by SDS-PAGE and subjected to immunoblot analysis using a rabbit antibody against either FGF1 (Jackson et al., 1992), Syt1 (LaVallee et al.,1998, J. Biol. Chem. 273:22217-22223) or Myc (Oncogene). The heat shock-induced release of FGF1 was performed at 42° C. for 110 minutes as previously described (Jackson et al., 1992). Cell viability was assessed by measuring lactate dehydrogenase activity in the conditioned medium after filtration as disclosed previously elsewhere herein (published as Mandinova et al., 2003, J. Cell Sci. 116:2687-2696), and total cell lysates were obtained and processed for immunoblot analysis as described (Landriscina et al., 2001, J. Biol. Chem. 276:22544-22552).
Stable FGF1R136K NIH 3T3 cell transfectants were pre-incubated with either 100 ng/ml pertussis toxin (PTX) or 10 ng/ml cholera toxin (CT) for 60 minutes at 37° C. in DMEM containing 10% BCS. After pre-incubation, the cells were washed, stimulated with 10 μg/ml of thrombin for different periods of time in the presence of either 100 ng/ml PTX or 10 ng/ml CT, conditioned medium collected, and subjected to immunoblot analysis as described above.
Since FGF1 is known to be susceptible to thrombin cleavage at residue 136 (Erzurum et al., 2003, J. Vasc. Surg. 37:1075-1081), a thrombin-resistant FGF1 mutant (FGF1R136K; described in International Patent Publication No. WO03/052378, which is incorporated by reference in its entirety herein) was used and stable FGF1R136K NIH 3T3 cell transfectants were produced.

Thrombin
proteolytic modification of Delta1 translation product [1]: unable to proteolytically modify
induction of FGF1 transcript ([2]; 10 μg/ml α-thrombin or 5 μM TRAP): able to induce
time at which FGF1 mRNA was initially detected ([2]; after addition of thrombin): 15 min
time to plateau of FGF1 mRNA ([2]; after addition of thrombin): ≤ 2 h
export of FGF2 [3]: unable to induce
concentration giving maximal response of FGF1R136K release ([3]; 37° C.): 10 µg/mL
export of S100A13 ([3]; 37° C., cells co-expressing S100A13 and FGF1R136K): presence of S100A13 in the extracellular compartment
release of the FGF1R136K mutant into the extracellular compartment ([3]; 37° C., 10 μg/ml α-thrombin or 5 μM TRAP): rapid and sustained appearance
time to maximum levels of FGF-1 release after contact ([3]; FGF-1-NIH 3T3 transfectants): one
release of the FGF1R136K mutant from cells with elevated Notch1 signaling ([3]; cells adenovirally transduced with caN1): unable to initiate the release
export of p40 Syt1 ([3]; p40 Syt1 adenovirally transduced): presence of p40 Syt1 in the extracellular compartment
